Laboratory results as given in ChEMBL document CHEMBL1201862, “PubChem BioAssay data set” (2004).
Calls of active or inactive are those of the source.

Legend:
[1] = molecular target: Intestinal-type alkaline phosphatase (Homo sapiens, UniProt P09923); assay: Dose Response confirmation of uHTS hits from a small molecule inhibitors of human intestinal alkaline phosphatase via a luminescent assay. [Related pubchem assays (depositor defined):AID2544, AID2574]; format: functional
Streptokinase A = molecular target: T1, Streptokinase A (Streptococcus pyogenes serotype M1, UniProt P10520); assay: S. pyogenes streptokinase expression inhibitors, potency, dose response, plasminogen activation absorbance, OD405 (AID 1914); format: functional, Streptococcus pyogenes M1 GAS;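 also: secreted streptokinase activity via plasminogen activation per viability signal from cell pellet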
T1 sequence (P10520 whole entry): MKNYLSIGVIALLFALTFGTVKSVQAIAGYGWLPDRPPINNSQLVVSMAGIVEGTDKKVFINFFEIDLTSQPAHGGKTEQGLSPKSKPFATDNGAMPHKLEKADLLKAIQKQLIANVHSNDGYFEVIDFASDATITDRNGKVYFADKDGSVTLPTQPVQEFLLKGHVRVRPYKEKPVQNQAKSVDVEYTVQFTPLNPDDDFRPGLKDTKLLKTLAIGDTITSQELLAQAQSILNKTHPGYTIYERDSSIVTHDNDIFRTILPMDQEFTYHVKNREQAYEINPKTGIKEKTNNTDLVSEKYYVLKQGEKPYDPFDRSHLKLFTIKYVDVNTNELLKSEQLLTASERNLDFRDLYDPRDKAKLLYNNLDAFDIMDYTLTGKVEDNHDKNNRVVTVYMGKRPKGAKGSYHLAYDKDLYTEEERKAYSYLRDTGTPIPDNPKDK

Ion channel NompC = Ion channel NompC (Danio rerio, UniProt Q7T1G6); assay: Fluorescence counterscreen assay for TRPML3 agonists: dose response cell-based high-throughput screening assay to identify agonists of the transient receptor potential channel N1 (TRPN1). [Related pubchem assays: 1526, 1424, 1448 ]; format: functional
Mucolipin-3 = molecular target: T2, Mucolipin-3 (Homo sapiens, UniProt Q8TDD5); assay: Dose response cell-based high-throughput screening assay for agonists of the transient receptor potential channel ML3 (TRPML3). [Related pubchem assays: 1526, 1424, 1448 ]; format: functional
T2 sequence (Q8TDD5 whole entry): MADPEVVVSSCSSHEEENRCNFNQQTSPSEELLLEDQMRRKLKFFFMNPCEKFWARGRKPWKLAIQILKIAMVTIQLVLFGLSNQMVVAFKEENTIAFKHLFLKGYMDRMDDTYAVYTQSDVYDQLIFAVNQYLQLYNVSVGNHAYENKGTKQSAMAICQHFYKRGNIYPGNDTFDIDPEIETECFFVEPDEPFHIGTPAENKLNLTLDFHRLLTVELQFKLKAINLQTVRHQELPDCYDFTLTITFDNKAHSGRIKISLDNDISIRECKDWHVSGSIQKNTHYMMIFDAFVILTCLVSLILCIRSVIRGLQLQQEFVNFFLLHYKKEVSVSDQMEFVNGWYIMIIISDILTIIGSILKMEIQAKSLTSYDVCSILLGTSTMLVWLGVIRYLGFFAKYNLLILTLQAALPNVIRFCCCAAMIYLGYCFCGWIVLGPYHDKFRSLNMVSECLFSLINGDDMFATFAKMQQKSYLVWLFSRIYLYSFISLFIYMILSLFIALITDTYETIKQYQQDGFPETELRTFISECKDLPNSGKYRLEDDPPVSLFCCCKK

Streptococcus = assay: Group A Streptococcus viability loss, dose response, counter-screen for streptokinase expression inhibitor project, luminescence, BacTiterGlo (AID 1915); format: functional, organism-based;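 also: potency for reduction of bacterial viability or growth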
[2] = tested on: Streptococcus sp. 'group A'; assay: growth inhibition of control SK(-) GAS strain, dose response, counter-screen for streptokinase expression inhibitor project, luminescence, kanamycin, BacTiterGlo, confirmation (AID 1900); format: functional, organism-based
[3] = molecular target: ATP-dependent molecular chaperone HSP82 (Candida albicans (strain WO-1) (Yeast), UniProt C4YTQ8); assay: loss of DOC-induced GRE-beta-galactosidase reporter signal, dose response, Hsp90 inhibitor project, S. cerevisiae, luminescence (AID 2400); format: functional, cell-based;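 also: beta-galactosidase luminescence from glucocorticoid response element reporter as proxy for Hsp90 function; inhibitor potency where signal loss means Hsp90 inhibition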
[4] = molecular target: Peroxisome proliferator-activated receptor gamma/Nuclear receptor coactivator 2 (Homo sapiens, UniProt P37231); assay: (§1) TR-FRET dose response biochemical High Throughput Screening assay for agonists of the steroid receptor coactivator 2 (SRC-2) recruitment by the peroxisome proliferator-activated receptor gamma (PPAR gamma): non-selective agonists. [Related pubchem assays: 1297, 1032 ]; format: functional
[5] = molecular target: Peroxisome proliferator-activated receptor gamma/Nuclear receptor coactivator 1 (Homo sapiens, UniProt P37231); assay: as §1, with “1 (SRC-1)” for “2 (SRC-2)”, “assays (depositor defined):AID1300, AID1808, AID504735, AID631]” for “assays: 1297, 1032 ]”; format: protein assay
[6] = molecular target: T3, Serine/threonine-protein phosphatase (Candida dubliniensis (strain CD36 / CBS 7987 / NCPF 3949 / NRRLY-17841) (Yeast), UniProt B9W6M3); assay: calcineurin pathway inhibitors in yeast reporter, dose response, S. cerevisiae, CDRE-lacZ, luminescence, secondary (AID 2388); format: functional, cell-based;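 also: yeast reporter cells carrying a calcineurin-responsive lacZ construct stimulated with calcium chloride; luminescent beta-galactosidase reporter signal in whole cells rather than isolated phosphatase activity; potency for inhibition where a drop in reporter signal means calcineurin blockade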
T3 sequence (B9W6M3 whole entry): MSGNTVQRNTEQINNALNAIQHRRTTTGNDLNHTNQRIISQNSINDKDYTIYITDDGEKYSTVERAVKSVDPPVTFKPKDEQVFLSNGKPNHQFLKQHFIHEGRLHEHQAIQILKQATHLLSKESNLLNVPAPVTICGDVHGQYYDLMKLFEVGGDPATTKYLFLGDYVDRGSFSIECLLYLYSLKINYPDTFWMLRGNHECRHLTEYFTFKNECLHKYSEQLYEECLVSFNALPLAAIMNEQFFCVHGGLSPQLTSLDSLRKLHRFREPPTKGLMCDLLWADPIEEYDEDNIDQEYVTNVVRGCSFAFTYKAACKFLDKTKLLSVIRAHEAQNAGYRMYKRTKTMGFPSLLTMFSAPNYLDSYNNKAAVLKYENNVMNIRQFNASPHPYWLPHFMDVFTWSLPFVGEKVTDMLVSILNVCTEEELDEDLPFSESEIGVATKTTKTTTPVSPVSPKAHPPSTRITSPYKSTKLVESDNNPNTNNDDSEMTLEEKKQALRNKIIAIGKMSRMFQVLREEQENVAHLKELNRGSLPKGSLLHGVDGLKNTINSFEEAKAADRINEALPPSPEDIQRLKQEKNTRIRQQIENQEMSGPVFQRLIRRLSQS

fMet-Leu-Phe receptor = molecular target: T4, fMet-Leu-Phe receptor (Homo sapiens, UniProt P21462); assay: FPR ligands, dose response (AID 519); format: functional
T4 sequence (P21462 whole entry): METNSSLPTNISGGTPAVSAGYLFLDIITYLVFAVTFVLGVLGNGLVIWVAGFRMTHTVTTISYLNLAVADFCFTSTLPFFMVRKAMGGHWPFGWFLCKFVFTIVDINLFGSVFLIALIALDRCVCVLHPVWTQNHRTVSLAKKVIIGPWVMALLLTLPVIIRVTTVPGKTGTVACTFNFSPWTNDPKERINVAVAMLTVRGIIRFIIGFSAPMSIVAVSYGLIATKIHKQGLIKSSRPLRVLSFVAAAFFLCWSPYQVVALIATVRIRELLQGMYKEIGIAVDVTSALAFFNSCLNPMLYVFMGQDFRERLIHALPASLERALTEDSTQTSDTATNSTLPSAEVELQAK

[7] = NIH-3T3 fibroblast cytotoxicity, dose response, cytotoxicity control, cell-based, fluorescence, Alamar Blue, secondary assay (AID 2327); format: functional;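 also: NIH-3T3 mouse fibroblasts cultured with fluconazole at 8 µg/mL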
[8] = molecular target: Peroxisome proliferator-activated receptor gamma/Nuclear receptor coactivator 3 (Homo sapiens, UniProt P37231); assay: as §1, with “3 (SRC-3)” for “2 (SRC-2)”, “1301 (Confirmation screen.), 1048 (Primary screen.)]” for “1297, 1032 ]”; format: functional
[9] = C. albicans growth with fluconazole, confirmation, fluorescence, retest (AID 2467); format: functional, cell-based
[10] = molecular target: T5, Long-chain-fatty-acid--AMP ligase FadD28 (Mycobacterium tuberculosis, UniProt P9WQ59); assay: Fluorescence polarization aasay to screen for inhibitors that compete for the binding of FadD28 to a bisubstrate Measured in Biochemical System Using Plate Reader - 2147-01_Inhibitor_Dose_CherryPick_Activity.; format: functional, Mycobacterium tuberculosis H37Rv
T5 sequence (P9WQ59 whole entry): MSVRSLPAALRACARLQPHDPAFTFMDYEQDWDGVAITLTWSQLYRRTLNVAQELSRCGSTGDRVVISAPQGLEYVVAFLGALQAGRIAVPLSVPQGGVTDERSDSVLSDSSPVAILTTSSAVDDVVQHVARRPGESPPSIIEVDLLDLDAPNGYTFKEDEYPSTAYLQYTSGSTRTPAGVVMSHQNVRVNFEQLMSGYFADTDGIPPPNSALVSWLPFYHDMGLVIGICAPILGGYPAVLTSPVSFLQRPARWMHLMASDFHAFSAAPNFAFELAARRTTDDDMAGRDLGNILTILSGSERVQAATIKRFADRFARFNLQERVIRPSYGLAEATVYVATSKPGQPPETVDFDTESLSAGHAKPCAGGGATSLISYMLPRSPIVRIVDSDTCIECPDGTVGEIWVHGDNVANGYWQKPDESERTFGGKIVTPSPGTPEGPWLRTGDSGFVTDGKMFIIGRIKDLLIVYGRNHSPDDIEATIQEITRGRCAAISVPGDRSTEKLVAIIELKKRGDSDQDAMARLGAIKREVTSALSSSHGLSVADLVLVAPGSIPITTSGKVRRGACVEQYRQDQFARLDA

NS3 = NS3 (Hepatitis C virus, UniProt A3EZJ3); assay: PubChem AID 2173; parameters: species or system Hepacivirus hominis
[11] = molecular target: Dual specificity tyrosine-phosphorylation-regulated kinase 1A (Rattus norvegicus, UniProt Q63470); format: biochemical, Homo sapiens
[12] = molecular target: T6, Calpain-2 catalytic subunit (Sus scrofa, UniProt P43367); assay: pig calpain II inhibitor potency, dose response, biochemical, fluorogenic peptide substrate (AID 1420); format: functional
T6 sequence (P43367 whole entry): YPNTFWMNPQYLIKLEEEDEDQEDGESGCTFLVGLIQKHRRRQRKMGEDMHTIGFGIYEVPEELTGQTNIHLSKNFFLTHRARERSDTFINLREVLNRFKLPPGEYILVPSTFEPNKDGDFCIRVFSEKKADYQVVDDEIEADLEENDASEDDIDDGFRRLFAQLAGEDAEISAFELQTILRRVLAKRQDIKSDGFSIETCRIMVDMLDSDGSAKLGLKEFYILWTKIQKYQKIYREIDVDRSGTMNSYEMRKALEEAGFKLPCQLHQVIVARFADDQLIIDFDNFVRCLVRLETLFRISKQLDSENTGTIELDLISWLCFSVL

SUMO-activating enzyme [13] = molecular target: T7, SUMO-activating enzyme (Homo sapiens, UniProt Q9UBT2); assay: SUMOylation inhibitor hit validation, confirmation, SUMOylation inhibitor project, biochemical, AlphaScreen (AID 2018); format: functional
SUMO-activating enzyme [14] = molecular target: T7, SUMO-activating enzyme; assay: inhibitors of in vitro SUMOylation cascade, primary screen, biochemical, HTRF, uHTS (AID 2006); format: protein-complex assay

Sequence of NS3 (A3EZJ3 whole entry): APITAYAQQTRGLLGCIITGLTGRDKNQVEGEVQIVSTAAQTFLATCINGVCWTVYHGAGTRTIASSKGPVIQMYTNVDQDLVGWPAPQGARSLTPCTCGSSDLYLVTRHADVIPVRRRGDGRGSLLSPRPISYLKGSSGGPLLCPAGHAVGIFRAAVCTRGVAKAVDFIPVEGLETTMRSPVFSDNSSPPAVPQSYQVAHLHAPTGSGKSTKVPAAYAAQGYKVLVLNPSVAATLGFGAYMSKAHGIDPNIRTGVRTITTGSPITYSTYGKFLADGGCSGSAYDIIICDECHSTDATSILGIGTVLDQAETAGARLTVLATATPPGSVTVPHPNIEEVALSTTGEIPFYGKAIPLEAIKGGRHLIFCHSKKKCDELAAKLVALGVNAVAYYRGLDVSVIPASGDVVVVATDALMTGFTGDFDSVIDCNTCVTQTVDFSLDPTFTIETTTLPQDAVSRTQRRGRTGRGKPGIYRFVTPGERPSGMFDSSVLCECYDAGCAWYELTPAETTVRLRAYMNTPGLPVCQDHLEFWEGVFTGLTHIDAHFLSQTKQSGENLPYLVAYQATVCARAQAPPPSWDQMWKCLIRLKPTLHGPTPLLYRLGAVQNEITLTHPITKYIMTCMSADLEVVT
T7 sequence (Q9UBE0 whole entry): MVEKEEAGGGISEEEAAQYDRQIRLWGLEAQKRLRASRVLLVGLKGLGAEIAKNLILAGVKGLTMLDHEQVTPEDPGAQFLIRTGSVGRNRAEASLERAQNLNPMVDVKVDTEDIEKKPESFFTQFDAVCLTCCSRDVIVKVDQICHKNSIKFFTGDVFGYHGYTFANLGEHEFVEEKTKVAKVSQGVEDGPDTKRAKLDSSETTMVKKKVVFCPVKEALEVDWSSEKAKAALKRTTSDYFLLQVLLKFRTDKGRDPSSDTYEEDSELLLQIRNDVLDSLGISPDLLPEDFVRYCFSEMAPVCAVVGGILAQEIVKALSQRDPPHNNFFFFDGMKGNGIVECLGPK
T7 sequence (Q9UBT2 whole entry): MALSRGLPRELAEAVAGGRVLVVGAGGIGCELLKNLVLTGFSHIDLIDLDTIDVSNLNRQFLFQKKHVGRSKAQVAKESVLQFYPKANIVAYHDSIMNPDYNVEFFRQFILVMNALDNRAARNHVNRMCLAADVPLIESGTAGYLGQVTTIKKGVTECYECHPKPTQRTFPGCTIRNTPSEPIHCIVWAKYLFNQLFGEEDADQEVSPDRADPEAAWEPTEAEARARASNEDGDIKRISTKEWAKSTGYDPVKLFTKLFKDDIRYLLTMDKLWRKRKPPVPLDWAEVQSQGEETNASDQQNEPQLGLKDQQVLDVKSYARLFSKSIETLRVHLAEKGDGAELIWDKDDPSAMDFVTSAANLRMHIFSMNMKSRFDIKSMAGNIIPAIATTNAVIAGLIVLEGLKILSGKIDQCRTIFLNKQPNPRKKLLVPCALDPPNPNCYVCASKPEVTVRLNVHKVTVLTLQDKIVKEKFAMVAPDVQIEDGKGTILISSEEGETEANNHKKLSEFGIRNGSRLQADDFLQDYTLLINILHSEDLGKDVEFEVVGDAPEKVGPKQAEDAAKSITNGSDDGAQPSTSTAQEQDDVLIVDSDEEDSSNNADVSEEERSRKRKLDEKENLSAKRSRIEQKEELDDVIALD
Sequence of Intestinal-type alkaline phosphatase (P09923 whole entry): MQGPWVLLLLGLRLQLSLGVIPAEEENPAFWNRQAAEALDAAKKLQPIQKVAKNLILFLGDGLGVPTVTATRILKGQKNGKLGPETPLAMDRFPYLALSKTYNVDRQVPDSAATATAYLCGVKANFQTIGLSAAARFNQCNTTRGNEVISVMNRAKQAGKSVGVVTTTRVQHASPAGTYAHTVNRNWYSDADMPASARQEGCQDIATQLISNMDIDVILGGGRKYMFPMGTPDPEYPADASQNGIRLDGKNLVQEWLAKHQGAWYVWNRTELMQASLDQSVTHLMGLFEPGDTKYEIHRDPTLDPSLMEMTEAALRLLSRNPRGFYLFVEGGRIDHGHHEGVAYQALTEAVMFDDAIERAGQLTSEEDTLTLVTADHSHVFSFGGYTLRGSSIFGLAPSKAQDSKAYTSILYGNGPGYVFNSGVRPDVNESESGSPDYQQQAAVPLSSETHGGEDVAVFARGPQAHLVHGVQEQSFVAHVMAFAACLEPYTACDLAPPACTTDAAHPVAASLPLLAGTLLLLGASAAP
Sequence of ATP-dependent molecular chaperone HSP82 (C4YTQ8 whole entry): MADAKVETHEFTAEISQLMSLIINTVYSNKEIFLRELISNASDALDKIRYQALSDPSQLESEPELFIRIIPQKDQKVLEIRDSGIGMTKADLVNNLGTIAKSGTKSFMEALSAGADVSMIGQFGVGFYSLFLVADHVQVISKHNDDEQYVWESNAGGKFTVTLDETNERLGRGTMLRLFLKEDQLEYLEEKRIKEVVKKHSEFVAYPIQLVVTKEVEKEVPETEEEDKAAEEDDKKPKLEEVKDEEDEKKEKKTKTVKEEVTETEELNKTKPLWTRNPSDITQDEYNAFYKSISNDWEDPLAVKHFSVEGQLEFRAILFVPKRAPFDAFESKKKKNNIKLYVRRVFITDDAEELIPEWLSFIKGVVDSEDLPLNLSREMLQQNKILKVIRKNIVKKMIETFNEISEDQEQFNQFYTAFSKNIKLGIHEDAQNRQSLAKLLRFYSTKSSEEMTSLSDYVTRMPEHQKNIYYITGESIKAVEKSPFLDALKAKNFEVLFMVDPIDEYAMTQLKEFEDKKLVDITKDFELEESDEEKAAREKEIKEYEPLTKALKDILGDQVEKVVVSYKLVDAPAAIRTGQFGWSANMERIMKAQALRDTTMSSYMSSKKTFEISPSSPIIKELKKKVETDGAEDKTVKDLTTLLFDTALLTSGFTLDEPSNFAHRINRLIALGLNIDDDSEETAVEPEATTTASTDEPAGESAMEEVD
Sequence of Peroxisome proliferator-activated receptor gamma/Nuclear receptor coactivator 3 (P37231 whole entry): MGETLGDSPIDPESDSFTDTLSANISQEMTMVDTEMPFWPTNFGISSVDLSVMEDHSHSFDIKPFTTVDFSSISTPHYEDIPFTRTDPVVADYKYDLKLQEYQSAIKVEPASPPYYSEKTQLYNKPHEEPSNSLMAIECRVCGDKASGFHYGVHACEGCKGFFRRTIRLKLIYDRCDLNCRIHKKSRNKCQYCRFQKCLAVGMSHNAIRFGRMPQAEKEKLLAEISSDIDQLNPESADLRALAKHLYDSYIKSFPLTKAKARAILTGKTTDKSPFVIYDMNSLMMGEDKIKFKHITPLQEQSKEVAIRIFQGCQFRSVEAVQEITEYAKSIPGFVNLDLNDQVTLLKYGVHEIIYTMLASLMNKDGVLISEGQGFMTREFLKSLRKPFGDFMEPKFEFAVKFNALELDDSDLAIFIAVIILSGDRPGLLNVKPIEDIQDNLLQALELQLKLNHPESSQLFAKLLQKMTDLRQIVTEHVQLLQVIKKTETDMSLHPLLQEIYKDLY
Sequence of Peroxisome proliferator-activated receptor gamma/Nuclear receptor coactivator 3 (Q9Y6Q9 whole entry, further chain): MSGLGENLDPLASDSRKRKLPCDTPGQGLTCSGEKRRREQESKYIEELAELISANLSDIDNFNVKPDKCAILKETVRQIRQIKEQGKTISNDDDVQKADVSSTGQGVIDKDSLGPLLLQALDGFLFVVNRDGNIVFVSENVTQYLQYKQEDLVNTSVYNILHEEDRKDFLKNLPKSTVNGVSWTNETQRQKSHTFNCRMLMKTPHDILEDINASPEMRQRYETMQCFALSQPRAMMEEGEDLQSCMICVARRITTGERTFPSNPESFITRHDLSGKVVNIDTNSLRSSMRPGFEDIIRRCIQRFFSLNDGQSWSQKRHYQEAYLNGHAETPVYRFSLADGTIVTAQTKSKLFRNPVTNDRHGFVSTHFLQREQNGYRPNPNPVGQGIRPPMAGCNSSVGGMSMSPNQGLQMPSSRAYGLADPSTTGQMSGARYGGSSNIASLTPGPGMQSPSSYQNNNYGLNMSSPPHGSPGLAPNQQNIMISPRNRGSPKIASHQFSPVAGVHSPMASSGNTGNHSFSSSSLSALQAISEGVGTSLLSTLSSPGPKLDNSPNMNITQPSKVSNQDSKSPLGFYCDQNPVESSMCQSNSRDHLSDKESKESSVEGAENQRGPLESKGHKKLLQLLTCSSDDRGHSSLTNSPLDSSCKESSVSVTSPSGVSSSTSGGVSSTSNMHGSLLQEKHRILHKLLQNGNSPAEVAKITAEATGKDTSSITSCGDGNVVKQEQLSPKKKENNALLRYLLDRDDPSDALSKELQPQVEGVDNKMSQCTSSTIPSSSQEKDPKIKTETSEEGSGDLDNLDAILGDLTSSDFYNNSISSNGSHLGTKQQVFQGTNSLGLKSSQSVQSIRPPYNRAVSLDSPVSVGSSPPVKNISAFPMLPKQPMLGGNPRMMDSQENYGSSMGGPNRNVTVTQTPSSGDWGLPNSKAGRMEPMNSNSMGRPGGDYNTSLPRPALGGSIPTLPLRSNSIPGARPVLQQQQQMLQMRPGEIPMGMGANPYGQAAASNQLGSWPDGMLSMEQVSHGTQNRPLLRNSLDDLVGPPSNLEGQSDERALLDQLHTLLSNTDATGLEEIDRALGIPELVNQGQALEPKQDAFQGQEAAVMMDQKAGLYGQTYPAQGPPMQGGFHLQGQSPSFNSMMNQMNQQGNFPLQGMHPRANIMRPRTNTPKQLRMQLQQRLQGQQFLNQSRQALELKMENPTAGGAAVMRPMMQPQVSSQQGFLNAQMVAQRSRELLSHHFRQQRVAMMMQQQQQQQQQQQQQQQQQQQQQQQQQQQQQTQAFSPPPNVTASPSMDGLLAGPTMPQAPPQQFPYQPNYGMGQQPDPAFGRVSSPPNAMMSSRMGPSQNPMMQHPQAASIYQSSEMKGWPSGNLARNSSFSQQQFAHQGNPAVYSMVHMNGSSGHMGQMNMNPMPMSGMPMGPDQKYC

NC(=O)c1ccc(NC(=O)C2CCCC2)cc1
IC50 [1]: > 100 µM (inactive)

Cc1cc(C)n(-c2nc(C)nc(NCc3ccccc3)n2)n1
EC50 (Streptokinase A): > 150 µM (not active)
EC50 (Ion channel NompC): > 29.9 µM (not active)
EC50 (Mucolipin-3): > 29.9 µM (not active)
EC50 (Streptococcus): > 150 µM (not active)
EC50 [2]: 42.4 µM (active)

COc1ccc(OC)c(C2C(C(=O)c3cc4ccccc4o3)=C(O)C(=O)N2c2cc(C)on2)c1 (stereo unspecified)
EC50 [3]: 21.6 µM (active)
EC50 [4]: 36 µM (not active)
EC50 [5]: > 79.4 µM (inactive)
EC50 [6]: > 180 µM (inactive)
Ki (fMet-Leu-Phe receptor): 36.6 µM (inactive)
EC50 [7]: > 150 µM (inactive)
EC50 [8]: > 79.4 µM (not active)
EC50 [9]: 0.046 µM (active)
AC50 [10]: > 100 µM (inactive)
IC50 (NS3): 5.29 µM (active)

COc1ccc2[nH]c3c(=O)n(CCCC(=O)NC4CCCCC4C)c(=S)[nH]c3c2c1 (stereo unspecified)
IC50 (NS3): 45.7 µM (not active)

O=C(Nc1ccc(F)cc1)C(=O)c1c(O)[nH]c2ccc([N+](=O)[O-])cc12
AC50 [11]: 10.4 µM (active)
IC50 [12]: > 50 µM (not active)
IC50 (SUMO-activating enzyme [13]): 9.48 µM (active)
IC50 (SUMO-activating enzyme [14]): 24 µM (active)
